Data published in patent US7781565B2 (priority 2006, dated 2010).

System: NCI-60 cell lines
Format: cell-based, human

For IGGRWVV, the “Cell Line (NCI-60 cell line the peptide and its motif are associated with)” value was “SK-OV-3-3 Ovarian”.
With VGVRFSR the “Cell Line (NCI-60 cell line the peptide and its motif are associated with)” value was “SK-MEL-28 Melanoma”.
In the case of GVLTIGA, the “Cell Line the peptide is associated with (peptide recovered from phage library selection on this NCI-60 cell line)” value is reported as “BT-549 Breast”.
WRARASP was tested, and the “Cell Line (NCI-60 cell line the peptide and its motif are associated with)” value was “UACC62 Melanoma”.
RASFRAG was tested, and the “Cell Line with which the peptide (and its tripeptide motif) is associated” value (from here on “Cell Line with which the peptide”) was “SR Leukemia”.
In the case of SRLSYRG, the “Cell Line with which the peptide” value is reported as “RPMI-8226-Leukemia”.
For GLVSSLP, the “Cell Line (NCI-60 cell line the peptide is associated with)” value was “HCT-15 Colon”.
With GLEGSGG the “Cell Line with which the peptide” value was “H23-Lung”.
For LAGMRGS, the “Cell Line (NCI-60 cell line the peptide and its motif are associated with)” value was “UACC62 Melanoma”.
PYYNGVR was tested, and the “Cell Line (NCI-60 cell line the peptide and its motif are associated with)” value was “IGROV1 Ovarian”.
DVIARGW was tested, and the “Cell Line (NCI-60 cell line the peptide and its motif are associated with)” value was “UACC 257 Melanoma”.
For VAELLSM, the “Cell Line (NCI-60 cell line the peptide and its motif are associated with)” value was “OVCAR-5 Ovarian”.
With WVSGRLG the “Cell Line (NCI-60 cell line the peptide is associated with)” value was “COLO-205-Colon”.
With GGLSVDL the “Cell Line with which the peptide” value was “EKVX-Lung”.
AAVGTAL was tested, and the “Cell Line the peptide is associated with (peptide recovered from phage library selection on this NCI-60 cell line)” value was “RXF393 Renal”.
In the case of TFAGLAQ, the “Cell Line the peptide is associated with (peptide recovered from phage library selection on this NCI-60 cell line)” value is reported as “BT-549 Breast”.
With WGVLQLE the “Cell Line (NCI-60 cell line the peptide is associated with)” value was “LOX-IMVI Melanoma”.
In the case of LRSSMML, the “Cell Line (NCI-60 cell line the peptide is associated with)” value is reported as “MALME-3M Melanoma”.
QAGSFLR was tested, and the “Cell Line with which the peptide” value was “EKVX-Lung”.
For RMGFGLR, the “Cell Line (NCI-60 cell line the peptide is associated with)” value was “LOX-IMVI Melanoma”.
SAAGRTF was tested, and the “Cell Line (NCI-60 cell line the peptide and its motif are associated with)” value was “SK-MEL-2 Melanoma”.
In the case of GGSTVPQ, the “Cell Line (NCI-60 cell line the peptide and its motif are associated with)” value is reported as “OVCAR-8 Ovarian”.
For IGWGVLG, the “Cell Line the peptide is associated with (peptide recovered from phage library selection on this NCI-60 cell line)” value was “BT-549 Breast”.
For FGSSNRS, the “Cell Line (NCI-60 cell line the peptide is associated with)” value was “SF-268 CNS”.
For SRGSYGS, the “Cell Line the peptide is associated with (peptide recovered from phage library selection on this NCI-60 cell line)” value was “MDA-MB-435-Breast”.
For LGLRGWT, the “Cell Line the peptide is associated with (peptide recovered from phage library selection on this NCI-60 cell line)” value was “ACHN Renal”.
For ALVSTIL, the “Cell Line the peptide is associated with (peptide recovered from phage library selection on this NCI-60 cell line)” value was “UO31 Renal”.
With LRVRYAV the “Cell Line with which the peptide” value was “H322-Lung”.
For RIDAGGG, the “Cell Line (NCI-60 cell line the peptide is associated with)” value was “SW620-Colon”.
With WWGLGWL the “Cell Line (NCI-60 cell line the peptide is associated with)” value was “HCC-2998-Colon”.
In the case of GAHGVRL, the “Cell Line the peptide is associated with (peptide recovered from phage library selection on this NCI-60 cell line)” value is reported as “SN12C Renal”.
SWAGVRF was tested, and the “Cell Line (NCI-60 cell line the peptide and its motif are associated with)” value was “OVCAR-5 Ovarian”.
In the case of STSLGAG, the “Cell Line with which the peptide” value is reported as “H322-Lung”.
In the case of VGSVKAS, the “Cell Line (NCI-60 cell line the peptide and its motif are associated with)” value is reported as “PC3 Prostate”.
For AASTRSL, the “Cell Line (NCI-60 cell line the peptide is associated with)” value was “MALME-3M Melanoma”.
AAIVGVS was tested, and the “Cell Line the peptide is associated with (peptide recovered from phage library selection on this NCI-60 cell line)” value was “MDA-MB-231 Breast”.
GAGVEYF was tested, and the “Cell Line the peptide is associated with (peptide recovered from phage library selection on this NCI-60 cell line)” value was “RXF393 Renal”.
With CHARGVT the “Cell Line with which the peptide” value was “Molt-4-Leukemia”.
With SLRSDGA the “Cell Line (NCI-60 cell line the peptide is associated with)” value was “HCT-15 Colon”.
RGSPLTK was tested, and the “Cell Line (NCI-60 cell line the peptide and its motif are associated with)” value was “UACC 257 Melanoma”.
For GVSIYDL, the “Cell Line the peptide is associated with (peptide recovered from phage library selection on this NCI-60 cell line)” value was “SN12C Renal”.
With DNDGARG the “Cell Line (NCI-60 cell line the peptide is associated with)” value was “COLO-205-Colon”.
With ARSSHRA the “Cell Line (NCI-60 cell line the peptide is associated with)” value was “HCT-116 Colon”.
With VMPGSVV the “Cell Line (NCI-60 cell line the peptide is associated with)” value was “SF-295 CNS”.
In the case of PVRGSVD, the “Cell Line with which the peptide” value is reported as “HL-60-Leukemia”.
For GAGSSVW, the “Cell Line the peptide is associated with (peptide recovered from phage library selection on this NCI-60 cell line)” value was “CAIK-1 Renal”.
In the case of LWLRSRE, the “Cell Line (NCI-60 cell line the peptide and its motif are associated with)” value is reported as “UACC 257 Melanoma”.
ASGLVVT was tested, and the “Cell Line (NCI-60 cell line the peptide is associated with)” value was “SNB-75 CNS”.
With DRYMLRS the “Cell Line with which the peptide” value was “H460-Lung”.
With PVHSAGG the “Cell Line with which the peptide” value was “H460-Lung”.
With IYPGAVL the “Cell Line (NCI-60 cell line the peptide and its motif are associated with)” value was “OVCAR-5 Ovarian”.
With LLLRSGG the “Cell Line with which the peptide” value was “RPMI-8226-Leukemia”.
With HGGSNDR the “Cell Line the peptide is associated with (peptide recovered from phage library selection on this NCI-60 cell line)” value was “A498 Renal”.
With MSNLAAV the “Cell Line (NCI-60 cell line the peptide is associated with)” value was “COLO-205-Colon”.
For GAGRGTP, the “Cell Line (NCI-60 cell line the peptide is associated with)” value was “HT-29 Colon”.
For GLWAAVL, the “Cell Line the peptide is associated with (peptide recovered from phage library selection on this NCI-60 cell line)” value was “TK-10 Renal”.
With SLRGSEG the “Cell Line with which the peptide” value was “Hop-92-Lung”.
AVYRAGR was tested, and the “Cell Line with which the peptide” value was “H522-Lung”.
In the case of YGALAGL, the “Cell Line (NCI-60 cell line the peptide and its motif are associated with)” value is reported as “PC3 Prostate”.
For YRGSMVG, the “Cell Line (NCI-60 cell line the peptide is associated with)” value was “COLO-205-Colon”.
With GAGLGVS the “Cell Line (NCI-60 cell line the peptide and its motif are associated with)” value was “IGROV1 Ovarian”.
With TWGRLGL the “Cell Line the peptide is associated with (peptide recovered from phage library selection on this NCI-60 cell line)” value was “ACHN Renal”.
VSGDGGS was tested, and the “Cell Line (NCI-60 cell line the peptide is associated with)” value was “SNB-75 CNS”.
In the case of HAAVMSL, the “Cell Line (NCI-60 cell line the peptide is associated with)” value is reported as “HCT-15 Colon”.
For LIRAVSA, the “Cell Line with which the peptide” value was “H460-Lung”.
For GVLSDRS, the “Cell Line (NCI-60 cell line the peptide and its motif are associated with)” value was “SK-MEL-2 Melanoma”.
For TTQLRGV, the “Cell Line (NCI-60 cell line the peptide and its motif are associated with)” value was “UACC62 Melanoma”.
With LGSSSHI the “Cell Line the peptide is associated with (peptide recovered from phage library selection on this NCI-60 cell line)” value was “NCI/ADR-RES Breast”.
For GVRTAGP, the “Cell Line with which the peptide” value was “A549-Lung”.
TAAAVLL was tested, and the “Cell Line (NCI-60 cell line the peptide and its motif are associated with)” value was “OVCAR-5 Ovarian”.
In the case of AGPSAWL, the “Cell Line with which the peptide” value is reported as “Hop-92-Lung”.
In the case of ARRGSGL, the “Cell Line (NCI-60 cell line the peptide and its motif are associated with)” value is reported as “MALME-3M Melanoma” and the “Cell Line (NCI-60 cell line the peptide is associated with)” value is reported as “MALME-3M Melanoma”.
With LEVGRLF the “Cell Line (NCI-60 cell line the peptide and its motif are associated with)” value was “SK-OV-3-3 Ovarian”.
For AGLSGSQ, the “Cell Line with which the peptide” value was “RPMI-8226-Leukemia”.
GVLTRGN was tested, and the “Cell Line (NCI-60 cell line the peptide and its motif are associated with)” value was “OVCAR-8 Ovarian”.
For HAWDRGV, the “Cell Line the peptide is associated with (peptide recovered from phage library selection on this NCI-60 cell line)” value was “MDA-MB-231 Breast”.
With FFGGSRA the “Cell Line with which the peptide” value was “K-562-Leukemia”.
For LAGSGSH, the “Cell Line with which the peptide” value was “Molt-4-Leukemia”.
YSGSSDF was tested, and the “Cell Line (NCI-60 cell line the peptide is associated with)” value was “COLO-205-Colon”.
With LIHAGGQ the “Cell Line the peptide is associated with (peptide recovered from phage library selection on this NCI-60 cell line)” value was “ACHN Renal”.
SIGPSTN was tested, and the “Cell Line with which the peptide” value was “H460-Lung”.
In the case of GRLRASL, the “Cell Line (NCI-60 cell line the peptide is associated with)” value is reported as “SF-295 CNS”.
With GGGRSGV the “Cell Line with which the peptide” value was “H226-Lung”.
In the case of SEDEGAG, the “Cell Line with which the peptide” value is reported as “H322-Lung”.
With GPSVLDI the “Cell Line (NCI-60 cell line the peptide and its motif are associated with)” value was “OVCAR-8 Ovarian”.
For LSAVSVK, the “Cell Line (NCI-60 cell line the peptide and its motif are associated with)” value was “SK-MEL-5 Melanoma”.
SVYALRS was tested, and the “Cell Line (NCI-60 cell line the peptide is associated with)” value was “COLO-205-Colon”.
ASPPLRS was tested, and the “Cell Line (NCI-60 cell line the peptide and its motif are associated with)” value was “A498 Renal”.
In the case of YSIMRVS, the “Cell Line (NCI-60 cell line the peptide is associated with)” value is reported as “SF-295 CNS”.
SHHRSSI was tested, and the “Cell Line the peptide is associated with (peptide recovered from phage library selection on this NCI-60 cell line)” value was “SN12C Renal”.
For ERYYLRS, the “Cell Line the peptide is associated with (peptide recovered from phage library selection on this NCI-60 cell line)” value was “MCF-7 Breast”.
RGVGKTK was tested, and the “Cell Line the peptide is associated with (peptide recovered from phage library selection on this NCI-60 cell line)” value was “MDA-MB-231 Breast”.
In the case of GLVASMP, the “Cell Line (NCI-60 cell line the peptide and its motif are associated with)” value is reported as “IGROV1 Ovarian”.
In the case of HADVLVS, the “Cell Line (NCI-60 cell line the peptide and its motif are associated with)” value is reported as “DU-145 Prostate”.
For LLRRAVF, the “Cell Line with which the peptide” value was “Hop-62-Lung”.
